Reference: PubChem BioAssay (NCI)
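Grown in 96-well plates, cells were treated for 48 hours with each compound at five concentrations. Insufficient inhibition: endpoint recorded as highest concentration tested. TGI is the concentration that stops growth completely.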

Experiments:
Assay in all cases: NCI tumour cell line growth inhibition, 48 h
786-0 renal = test system: 786-0 renal
A498 renal = test system: A498 renal
A549 NSCLC = test system: A549 NSCLC
ACHN renal = test system: ACHN renal
CAKI-1 renal = test system: CAKI-1 renal
CCRF-CEM leukemia = test system: CCRF-CEM leukemia
COLO 205 colon = test system: COLO 205 colon
DLD-1 colon = test system: DLD-1 colon
DMS 273 small cell lung = test system: DMS 273 small cell lung
EKVX NSCLC = test system: EKVX NSCLC
HCC-2998 colon = test system: HCC-2998 colon
HCT-116 colon = test system: HCT-116 colon
HCT-15 colon = test system: HCT-15 colon
HL-60(TB) leukemia = test system: HL-60(TB) leukemia
HOP-18 NSCLC = test system: HOP-18 NSCLC
HOP-62 NSCLC = test system: HOP-62 NSCLC
HOP-92 NSCLC = test system: HOP-92 NSCLC
HT29 colon = test system: HT29 colon
IGROV1 ovarian = test system: IGROV1 ovarian
K-562 leukemia = test system: K-562 leukemia
KM12 colon = test system: KM12 colon
KM20L2 colon = test system: KM20L2 colon
LOX IMVI melanoma = test system: LOX IMVI melanoma
LXFL 529 NSCLC = test system: LXFL 529 NSCLC
M14 melanoma = test system: M14 melanoma
M19-MEL melanoma = test system: M19-MEL melanoma
MALME-3M melanoma = test system: MALME-3M melanoma
MOLT-4 leukemia = test system: MOLT-4 leukemia
NCI-H226 lung = test system: NCI-H226 lung
NCI-H23 lung = test system: NCI-H23 lung
NCI-H460 lung = test system: NCI-H460 lung
NCI-H522 lung = test system: NCI-H522 lung
OVCAR-3 ovarian = test system: OVCAR-3 ovarian
OVCAR-4 ovarian = test system: OVCAR-4 ovarian
OVCAR-5 ovarian = test system: OVCAR-5 ovarian
OVCAR-8 ovarian = test system: OVCAR-8 ovarian
RPMI-8226 leukemia = test system: RPMI-8226 leukemia
RXF 393 renal = test system: RXF 393 renal
SF-268 CNS = test system: SF-268 CNS
SF-295 CNS = test system: SF-295 CNS
SF-539 CNS = test system: SF-539 CNS
SK-MEL-2 melanoma = test system: SK-MEL-2 melanoma
SK-MEL-28 melanoma = test system: SK-MEL-28 melanoma
SK-MEL-5 melanoma = test system: SK-MEL-5 melanoma
SK-OV-3 ovarian = test system: SK-OV-3 ovarian
SN12C renal = test system: SN12C renal
SNB-19 CNS = test system: SNB-19 CNS
SNB-75 CNS = test system: SNB-75 CNS
SNB-78 CNS = test system: SNB-78 CNS
SR leukemia = test system: SR leukemia
SW-620 colon = test system: SW-620 colon
TK-10 renal = test system: TK-10 renal
U251 CNS = test system: U251 CNS
UACC-257 melanoma = test system: UACC-257 melanoma
UACC-62 melanoma = test system: UACC-62 melanoma
UO-31 renal = test system: UO-31 renal
XF 498 CNS = test system: XF 498 CNS

Question: Which TGI (786-0 renal) does the source give for `CC1=C2C(=O)C(C)(C)C=C2C(=O)[C@](C)(O)C12CC2` here?
Answer: > 1000 nM

Question: And the TGI (A498 renal)?
Answer: > 1000 nM

Question: What about the TGI (A549 NSCLC) of the same compound?
Answer: > 1000 nM

Question: And the TGI (ACHN renal)?
Answer: > 1000 nM

Question: What about the TGI (CAKI-1 renal) of the same compound?
Answer: > 1000 nM

Question: And the TGI (CCRF-CEM leukemia)?
Answer: > 1000 nM

Question: And the TGI (COLO 205 colon)?
Answer: > 1000 nM

Question: And the TGI (DLD-1 colon)?
Answer: > 1000 nM

Question: What about the TGI (DMS 273 small cell lung) of the same compound?
Answer: > 464 nM

Question: And the TGI (EKVX NSCLC)?
Answer: > 1000 nM

Question: And the TGI (HCC-2998 colon)?
Answer: > 1000 nM

Question: And the TGI (HCT-116 colon)?
Answer: > 1000 nM

Question: What about the TGI (HCT-15 colon) of the same compound?
Answer: > 1000 nM

Question: What about the TGI (HL-60(TB) leukemia) of the same compound?
Answer: 660 nM

Question: What about the TGI (HOP-18 NSCLC) of the same compound?
Answer: > 1000 nM

Question: And the TGI (HOP-62 NSCLC)?
Answer: > 1000 nM

Question: And the TGI (HOP-92 NSCLC)?
Answer: > 1000 nM

Question: And the TGI (HT29 colon)?
Answer: > 1000 nM

Question: What about the TGI (IGROV1 ovarian) of the same compound?
Answer: > 1000 nM

Question: What about the TGI (K-562 leukemia) of the same compound?
Answer: > 1000 nM

Question: What about the TGI (KM12 colon) of the same compound?
Answer: > 1000 nM

Question: And the TGI (KM20L2 colon)?
Answer: > 1000 nM

Question: And the TGI (LOX IMVI melanoma)?
Answer: > 1000 nM

Question: What about the TGI (LXFL 529 NSCLC) of the same compound?
Answer: > 1000 nM

Question: What about the TGI (M14 melanoma) of the same compound?
Answer: > 1000 nM

Question: And the TGI (M19-MEL melanoma)?
Answer: > 1000 nM

Question: And the TGI (MALME-3M melanoma)?
Answer: > 946 nM

Question: What about the TGI (MOLT-4 leukemia) of the same compound?
Answer: > 1000 nM

Question: What about the TGI (NCI-H226 lung) of the same compound?
Answer: > 1000 nM

Question: What about the TGI (NCI-H23 lung) of the same compound?
Answer: > 1000 nM

Question: What about the TGI (NCI-H460 lung) of the same compound?
Answer: > 1000 nM

Question: And the TGI (NCI-H522 lung)?
Answer: 700 nM

Question: And the TGI (OVCAR-3 ovarian)?
Answer: > 1000 nM

Question: What about the TGI (OVCAR-4 ovarian) of the same compound?
Answer: > 1000 nM

Question: And the TGI (OVCAR-5 ovarian)?
Answer: > 1000 nM

Question: What about the TGI (OVCAR-8 ovarian) of the same compound?
Answer: > 1000 nM

Question: And the TGI (RPMI-8226 leukemia)?
Answer: > 1000 nM

Question: What about the TGI (RXF 393 renal) of the same compound?
Answer: > 1000 nM

Question: And the TGI (SF-268 CNS)?
Answer: > 1000 nM

Question: What about the TGI (SF-295 CNS) of the same compound?
Answer: > 1000 nM

Question: What about the TGI (SF-539 CNS) of the same compound?
Answer: > 1000 nM

Question: What about the TGI (SK-MEL-2 melanoma) of the same compound?
Answer: > 1000 nM

Question: What about the TGI (SK-MEL-28 melanoma) of the same compound?
Answer: > 1000 nM

Question: And the TGI (SK-MEL-5 melanoma)?
Answer: > 612 nM

Question: And the TGI (SK-OV-3 ovarian)?
Answer: > 1000 nM

Question: What about the TGI (SN12C renal) of the same compound?
Answer: > 1000 nM

Question: What about the TGI (SNB-19 CNS) of the same compound?
Answer: > 1000 nM

Question: And the TGI (SNB-75 CNS)?
Answer: > 1000 nM

Question: What about the TGI (SNB-78 CNS) of the same compound?
Answer: > 1000 nM

Question: What about the TGI (SR leukemia) of the same compound?
Answer: > 1000 nM

Question: What about the TGI (SW-620 colon) of the same compound?
Answer: > 1000 nM

Question: And the TGI (TK-10 renal)?
Answer: > 1000 nM

Question: And the TGI (U251 CNS)?
Answer: > 1000 nM

Question: What about the TGI (UACC-257 melanoma) of the same compound?
Answer: > 1000 nM

Question: And the TGI (UACC-62 melanoma)?
Answer: > 1000 nM

Question: What about the TGI (UO-31 renal) of the same compound?
Answer: > 1000 nM

Question: What about the TGI (XF 498 CNS) of the same compound?
Answer: > 1000 nM
